According to PMC8228141, “Antiprotozoal Nor-Triterpene Alkaloids from Buxus sempervirens L” (Antibiotics, 2021):
Values joined by “and” are separate entries in the source; they are usually repeats but may differ in a detail not shown here. Equal entries are not always repeated. Where two headings read alike, the source gives them in different places.

Experiments:
[1] = system: Trypanosoma brucei rhodesiense (Tbr) (bloodstream trypomastigotes, STIB 900 strain); assay: In vitro antitrypanosomal activity; format: cell-based; conditions: for SI Tbr (selectivity index): cytotoxicity L6 vs Tbr
Protocol: (§1) After isolation, all alkaloids were tested in vitro for antiplasmodial and antitrypanosomal activity against Plasmodium falciparum (Pf) and Trypanosoma brucei rhodesiense (Tbr). Furthermore, to assess their selectivity against the parasites, cytotoxicity against L6 rat skeletal myoblasts, as mammalian control cells, was tested (Table 4).
In vitro assays for the bioactivity of the isolated Buxus-alkaloids against Tbr (bloodstream trypomastigotes, STIB 900 strain), Trypanosoma cruzi (Tc) (amastigotes, Tulahuen C4 strain), Leishmania donovani (Ldo) (amastigotes, MHOM-ET-67/L82 strain) and Pf (intraerythrocytic forms, NF54 strain), and cytotoxicity tests against mammalian cells (L6-cell line from rat-skeletal myoblasts), were performed at the Swiss Tropical and Public Health Institute (Swiss TPH, Basel, Switzerland) according to established standard protocols. […] Such a pattern of activity was also observed in other studies.

[2] = system: L6 rat skeletal myoblasts; assay: Cytotoxicity against mammalian control cells; format: cell-based; conditions: L6 cell line; for Cytotox. IC50: mean of n = 2 (fluctuation range) or * n = 3 (SD); for IC50: read-out: Cytotox. IC50 (in parentheses) (converted)
Protocol: as §1
(§2) In vitro assays for the bioactivity of the isolated Buxus-alkaloids against Tbr (bloodstream trypomastigotes, STIB 900 strain), Trypanosoma cruzi (Tc) (amastigotes, Tulahuen C4 strain), Leishmania donovani (Ldo) (amastigotes, MHOM-ET-67/L82 strain) and Pf (intraerythrocytic forms, NF54 strain), and cytotoxicity tests against mammalian cells (L6-cell line from rat-skeletal myoblasts), were performed at the Swiss Tropical and Public Health Institute (Swiss TPH, Basel, Switzerland) according to established standard protocols.

[3] = system: Plasmodium falciparum (Pf) (intraerythrocytic forms, NF54 strain); assay: In vitro antiplasmodial activity; format: cell-based; conditions: for SI Pf (selectivity index): cytotoxicity L6 vs Pf
Protocol: as §1, §2

[4] = Cytotoxicity against mammalian control cells; format: cell-based, rat; conditions: rat
Protocol: as §1, §2

[5] = STIB 900 strain, mean of n = 2 (fluctuation range) or * n = 3 (SD)
[6] = STIB 900 strain, read-out: Tbr IC50 (in parentheses) (converted)
[7] = NF54 strain, mean of n = 2 (fluctuation range) or * n = 3 (SD)
[8] = NF54 strain, read-out: Pf IC50 (in parentheses) (converted)
[9] = Trypanosoma brucei, STIB 900 strain, mean of n = 2 (fluctuation range) or * n = 3 (SD), read-out: Tbr IC50
[10] = Trypanosoma brucei, STIB 900 strain, read-out: Tbr IC50 (in parentheses) (converted)
[11] = Plasmodium falciparum, NF54, NF54 strain, mean of n = 2 (fluctuation range) or * n = 3 (SD), read-out: Pf IC50
[12] = Plasmodium falciparum, NF54, NF54 strain, read-out: Pf IC50 (in parentheses) (converted)
[13] = L6 rat skeletal myoblast cells, L6 cell line, mean of n = 2 (fluctuation range) or * n = 3 (SD), read-out: Cytotox. IC50
[14] = L6 rat skeletal myoblast cells, L6 cell line, read-out: Cytotox. IC50 (in parentheses) (converted)

C[C@@H]([C@H]1CC[C@H]2[C@@H]3CC=C4C[C@@H](O)CC[C@]4(C)[C@H]3CC[C@]12C)N(C)C [Compound 19, Irehine]
Tbr IC50 [1, 5]: 2.2 ± 0.07 µg/mL
IC50 [1, 6]: 6.4 µM
Cytotox. IC50 [2]: 13.4 ± 0.5 µg/mL
IC50 [2]: 38.8 µM
Pf IC50 [3, 7]: 1.3 ± 0.35 µg/mL
IC50 [3, 8]: 3.8 µM

CC(=O)OC[C@]1(C)[C@@H](NC(=O)c2ccccc2)CC[C@]23C[C@]24C(=O)C[C@]2(C)[C@@H]([C@H](C)N(C)C)CC[C@@]2(C)[C@@H]4CC[C@@H]13 [Compound 9, N-benzoyl-O-acetyl-cycloxo-buxoline-F]
Tbr IC50 [1, 5]: 1.35 ± 0.45 µg/mL
IC50 [1, 6]: 2.4 µM
Cytotox. IC50 [2]: 41 ± 0.7 µg/mL
IC50 [2]: 73 µM
Pf IC50 [3, 7]: 2.15 ± 0.29 µg/mL
IC50 [3, 8]: 3.8 µM

CN[C@@H](C)[C@H]1CC[C@@]2(C)[C@@H]3CC[C@H]4C(C)(C)[C@@H](NC)[C@H](OC(=O)c5ccccc5)C[C@@]45C[C@@]35CC[C@]12C [Compound 8, O-benzoyl-cycloprotobuxoline-D]
IC50 [1, 9]: 0.55 ± 0.18 µg/mL
IC50 [1, 10]: 1.1 µM
SI Tbr (selectivity index) [1]: 12
IC50 [4]: 6.65 µg/mL and 13.1 µM
IC50 [3, 11]: 0.09 ± 0.03 µg/mL
IC50 [3, 12]: 0.18 µM
SI Pf (selectivity index) [3]: 74

COc1cc([C@@H]2c3cc4c(cc3[C@H](O)[C@H]3COC(=O)[C@H]23)OCO4)cc(OC)c1OC [Podophyllotoxin, reference compound]
IC50 ([4]; L6 cell line, mean of n = 2 (fluctuation range) or * n = 3 (SD), read-out: Cytotox. IC50): 0.006 ± 0.001 µg/mL

CC(=O)[C@H]1[C@H](O)C[C@@]2(C)[C@@H]3CC[C@@H]4C(=CC3=CC[C@]12C)CC[C@H](N(C)C)C4(C)C [Compound 20, 16-α-hydroxybuxaminone]
Tbr IC50 [1, 5]: 5.26 ± 0.3 µg/mL
IC50 [1, 6]: 13.2 µM
Cytotox. IC50 [2]: 45 ± 1 µg/mL
IC50 [2]: 113 µM
Pf IC50 [3, 7]: 1.6 ± 0.57 µg/mL
IC50 [3, 8]: 4 µM

CN[C@@H](C)[C@H]1[C@H](OC(=O)c2ccccc2)C[C@@]2(C)[C@@H]3C=C[C@H]4[C@](C)(CO)[C@@H](N(C)C)CC[C@@]45C[C@@]35CC[C@]12C [Compound 7, Cyclomicrophyllidine-B]
IC50 [1, 9]: 1.9 ± 0.3 µg/mL
IC50 [1, 10]: 3.6 µM
SI Tbr (selectivity index) [1]: 8
IC50 [4]: 16 µg/mL and 29.9 µM
IC50 [3, 11]: 0.11 ± 0.01 µg/mL
IC50 [3, 12]: 0.2 µM
SI Pf (selectivity index) [3]: 145

CC(=O)N[C@@H](C)[C@H]1CC[C@@]2(C)[C@@H]3CC[C@@H]4C(=CC3=CC[C@]12C)CC[C@H](N(C)C)C4(C)C [Compound 21, N20-acetylbuxamine-E]
Tbr IC50 [1, 5]: 53 ± 1 µg/mL
IC50 [1, 6]: 124 µM
Cytotox. IC50 [2]: 54.8 ± 1.1 µg/mL
IC50 [2]: 129 µM
Pf IC50 [3, 7]: 3.1 ± 0.24 µg/mL
IC50 [3, 8]: 7.3 µM

CN[C@H]1CC=C2CC3=CC[C@]4(C)[C@@H]([C@H](C)NC(C)=O)CC[C@@]4(C)[C@@H]3CC[C@H]2C1(C)C [Compound 24, N20-acetylbuxadine-G]
IC50 [1, 9]: 0.52 ± 0.27 µg/mL
IC50 [1, 10]: 1.3 µM
SI Tbr (selectivity index) [1]: 33
IC50 [4, 13]: 16.9 ± 1.1 µg/mL
IC50 [4, 14]: 41 µM
IC50 [3, 11]: 2.3 ± 0.27 µg/mL
IC50 [3, 12]: 5.6 µM
SI Pf (selectivity index) [3]: 7

C=C1C2CC[C@@H]3[C@]4(CC[C@]5(C)[C@@H](C(C)=O)[C@H](O)C[C@@]35C)C[C@]24CC[C@@H]1NC (stereo partly drawn) [Compound 17, Cyclomicrobuxinine]
IC50 [1, 9]: 48 ± 0.2 µg/mL
IC50 [1, 10]: 129 µM
SI Tbr (selectivity index) [1]: 0.6
IC50 [4]: 30.5 µg/mL and 82 µM
IC50 [3, 11]: 4.1 ± 0.8 µg/mL
IC50 [3, 12]: 10.9 µM
SI Pf (selectivity index) [3]: 7

CC(C1C(OC(=O)c2ccccc2)CC2(C)C3C=CC4C(C)(CO)C(N(C)C)CCC45CC35CCC12C)N(C)C (stereo not drawn) [Compound 6, Cyclomicrophyllidine-A]
Tbr IC50 [1, 5]: 0.69 ± 0.06 µg/mL
IC50 [1, 6]: 1.3 µM
Cytotox. IC50 [2]: 9.3 ± 3 µg/mL
IC50 [2]: 17 µM
Pf IC50 [3, 7]: 0.4 ± 0.02 µg/mL
IC50 [3, 8]: 0.7 µM

C/C=C(\C)C(=O)O[C@@H]1C[C@@]2(C)[C@@H]3C=C[C@H]4[C@](C)(CO)[C@@H](N(C)C)CC[C@@]45C[C@@]35CC[C@]2(C)[C@H]1[C@H](C)NC [Compound 3, O-tigloylcyclomicrophylline-B]
IC50 [1, 9]: 4.6 ± 0.005 µg/mL
IC50 [1, 10]: 9 µM
SI Tbr (selectivity index) [1]: 8
IC50 [4]: 35.8 µg/mL and 69.9 µM
IC50 [3, 8]: 0.98 µM
IC50 [3, 11]: 0.5 ± 0.06 µg/mL
IC50 [3, 12]: < 1 µM
SI Pf (selectivity index) [3]: 72

C/C=C(\C)C(=O)O[C@@H]1C[C@@]2(C)[C@@H]3C=C[C@H]4[C@](C)(CO)[C@@H](N(C)C)CC[C@@]45C[C@@]35CC[C@]2(C)[C@H]1[C@H](C)N(C)C [Compound 4, O-tigloylcyclomicrophylline-A]
IC50 [1, 9]: 1.5 ± 0.76 µg/mL
IC50 [1, 10]: 2.9 µM
SI Tbr (selectivity index) [1]: 8
IC50 [4]: 12 µg/mL and 22.8 µM
IC50 [3, 8]: 0.7 µM
IC50 [3, 11]: 0.35 ± 0.08 µg/mL
IC50 [3, 12]: < 1 µM
SI Pf (selectivity index) [3]: 34

Nc1nc(N)nc(Nc2ccc([As]3SCC(CO)S3)cc2)n1 (stereo not drawn) [Melarsoprol, reference compound]
IC50 ([1]; Trypanosoma brucei, read-out: Tbr IC50): 0.005 ± 0.001 µg/mL
IC50 ([1]; Trypanosoma brucei, read-out: Tbr IC50 (in parentheses)): 0.013 µM

CC(C1C(O)CC2(C)C3C=CC4C(C)(CO)C(N(C)C)CCC45CC35CCC12C)N(C)C (stereo not drawn) [Compound 5, Cyclomicrophylline-A]
Tbr IC50 [1, 5]: 1.04 ± 0.27 µg/mL
IC50 [1, 6]: 2.34 µM
Cytotox. IC50 [2]: 44 ± 2.3 µg/mL
IC50 [2]: 99 µM
Pf IC50 [3, 7]: 0.78 ± 0.08 µg/mL
IC50 [3, 8]: 1.76 µM

C[C@@H]([C@H]1[C@H](O)C[C@@]2(C)[C@@H]3CC[C@H]4C(C)(C)C(=O)C=C[C@@]45C[C@@]35CC[C@]12C)N(C)C [Compound 12, Nb-dimethylcycloxobuxoviricine]
Tbr IC50 [1, 5]: 2.5 ± 0.1 µg/mL
IC50 [1, 6]: 6.3 µM
Cytotox. IC50 [2]: 19 ± 1.2 µg/mL
IC50 [2]: 47.6 µM
Pf IC50 [3, 7]: 1.4 ± 0.44 µg/mL
IC50 [3, 8]: 3.5 µM

CC(=O)O[C@@H]1C[C@@]2(C)[C@@H]3CC[C@@H]4C(=CC3=CC[C@]2(C)[C@H]1[C@H](C)NC(=O)c1ccccc1)CC[C@H](N(C)C)C4(C)C [Compound 22, N-benzoyl-O-acetylbuxodienine-E]
Tbr IC50 [1, 5]: 3.4 ± 1 µg/mL
Cytotox. IC50 [2]: 8.5 ± 0.1 µg/mL
IC50 [2]: 15.6 µM

CC(=O)O[C@@H]1C[C@@]2(C)[C@@H]3CC[C@@H]4C(=CC[C@H](N(C)C)C4(C)C)CC3=CC[C@]2(C)[C@H]1[C@H](C)NC(=O)c1ccccc1 [Compound 23, N-benzoyl-O-acetylbuxadine-E]
IC50 [1, 9]: 3.1 ± 0.6 µg/mL
IC50 [1, 10]: 5.7 µM
SI Tbr (selectivity index) [1]: 9
IC50 [4, 13]: 27.5 ± 16 µg/mL
IC50 [4, 14]: 50.4 µM
IC50 [3, 11]: 4.2 ± 0.4 µg/mL
IC50 [3, 12]: 7.7 µM
SI Pf (selectivity index) [3]: 7

CN[C@H]1CC=C2CC3=CC[C@@]4(C)[C@@](C)(CC[C@]4(O)[C@H](C)O)[C@@H]3CC[C@H]2C1(C)C [Compound 25, 17,20-dihydroxybuxadine-M]
IC50 [1, 9]: 6.7 ± 0.49 µg/mL
IC50 [1, 10]: 17.3 µM
SI Tbr (selectivity index) [1]: 7
IC50 [4, 13]: 44.5 ± 5.5 µg/mL
IC50 [4, 14]: 115 µM
IC50 [3, 11]: 3.6 ± 0.05 µg/mL
IC50 [3, 12]: 9.3 µM
SI Pf (selectivity index) [3]: 12

C=C1[C@@H](N(C)C)CC[C@]23C[C@]24CC[C@]2(C)[C@@H](C(C)=O)[C@H](O)C[C@@]2(C)[C@@H]4CC[C@@H]13 [Compound 18, Cyclomicrobuxine]
Tbr IC50 [1, 5]: 16.9 ± 2.3 µg/mL
IC50 [1, 6]: 44 µM
Cytotox. IC50 [2]: 26.8 ± 8.8 µg/mL
IC50 [2]: 69.6 µM
Pf IC50 [3, 7]: 2.6 ± 0.005 µg/mL
IC50 [3, 8]: 6.8 µM

CCN(CC)CCCC(C)Nc1ccnc2cc(Cl)ccc12 (stereo not drawn) [Chloroquine, reference compound]
IC50 ([3]; Plasmodium falciparum, NF54, read-out: Pf IC50): 0.006 ± 0.001 µg/mL
IC50 ([3]; Plasmodium falciparum, NF54, read-out: Pf IC50 (in parentheses)): 0.019 µM
